Measurements reported in article PMC10709440, “High-throughput ligand profile characterization in novel cell lines expressing seven heterologous insect olfactory receptors for the detection of volatile plant biomarkers” (Scientific Reports, 2023).
Values joined by “and” are separate entries in the source; they are usually repeats but may differ in a detail not shown here. Equal values may be shown once.

Experiments:
Drosophila OR47a = target: T1, Drosophila OR47a (Drosophila melanogaster, UniProt P81921); experiment: Calcium ion fluorescence (GCaMP6) assay, OR47a stable HEK293 cell line; format: cell-based; settings: OR47a cell line; assay buffer lacking Ca2+, and lacking Ca2+ and containing EGTA
T1 construct: expressed in transfected cells
T1 sequence (P81921 1-385): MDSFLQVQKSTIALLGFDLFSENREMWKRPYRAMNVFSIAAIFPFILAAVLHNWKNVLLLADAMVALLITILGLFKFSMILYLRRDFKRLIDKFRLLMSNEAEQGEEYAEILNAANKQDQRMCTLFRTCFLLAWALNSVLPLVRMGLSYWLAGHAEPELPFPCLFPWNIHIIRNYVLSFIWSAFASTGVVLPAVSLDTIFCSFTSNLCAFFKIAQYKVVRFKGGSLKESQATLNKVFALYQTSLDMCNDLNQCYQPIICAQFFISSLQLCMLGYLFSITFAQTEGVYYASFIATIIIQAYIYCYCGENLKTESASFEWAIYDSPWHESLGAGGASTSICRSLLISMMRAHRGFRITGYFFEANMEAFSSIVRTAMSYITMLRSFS
T1 sequence (Q9VNB5 1-486 partner): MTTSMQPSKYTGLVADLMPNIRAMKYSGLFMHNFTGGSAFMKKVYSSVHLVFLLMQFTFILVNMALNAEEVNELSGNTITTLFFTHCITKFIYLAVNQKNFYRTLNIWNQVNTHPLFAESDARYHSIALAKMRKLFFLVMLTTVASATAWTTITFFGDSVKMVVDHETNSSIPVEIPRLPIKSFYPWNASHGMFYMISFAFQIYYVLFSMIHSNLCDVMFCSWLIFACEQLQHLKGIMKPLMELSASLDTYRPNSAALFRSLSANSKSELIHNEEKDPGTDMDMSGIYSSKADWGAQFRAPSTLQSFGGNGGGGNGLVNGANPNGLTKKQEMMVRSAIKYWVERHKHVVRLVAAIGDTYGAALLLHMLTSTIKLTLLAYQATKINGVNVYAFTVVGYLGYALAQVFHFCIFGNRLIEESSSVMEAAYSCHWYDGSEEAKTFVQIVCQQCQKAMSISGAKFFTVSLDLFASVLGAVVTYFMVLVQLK
Experimental: (§1) These VUAA1 normalized ∆F values were used to compare the different receptors and ligands.
(§2) The concentration-dependent effect of the reference ligands on their cognate cell lines was examined in more detail. Twelve different ligand concentrations were measured on each cell line in an overall 0.01 μM to 100 μM concentration range with 5 repetitions with three technical replicates each time.
(§3) Twelve thousand to 18,000 cells were plated into each well of a black wall, transparent bottom 384-well microplate (Greiner) 48 h or 72 h before the measurements and were simultaneously treated with 1 μg/mL doxycycline. […] The plate has 24 columns, thus we could record responses in up to eight different cell lines in each plate. On the day of the experiment, the growth medium was replaced with 20 µL assay buffer/well (140 mM NaCl, 5 mM KCl, 2 mM CaCl2, 1 mM MgCl2, 5 mM HEPES-Na, 20 mM glucose, pH 7.3, 340 mOsm). […] Baseline fluorescence (F0) was recorded for 5 s, after which 7 µL VOC buffer (140 mM NaCl, 5 mM KCl, 2 mM CaCl2, 1 mM MgCl2, 5 mM HEPES-Na, 31 mM glucose, 0.1% DMSO, pH 7.3, 340 mOsm) was injected into each well in one row and the fluorescence response was recorded for an additional 30 s, at a rate of one read/sec. VOC solutions (VOC buffer with 4× concentration of the final measured VOC concentration, 9 µL/well was injected) were measured on the same wells in a second round with the same protocol. Each individual concentration of a specific VOC sample was recorded in three wells for the same cell line on the same microplate. The raw data were exported in xls file format, F0 and FMAX values, and the fluorescence intensity changes (∆F) were calculated in Excel (Microsoft) (Supplementary file Data summary.xlsx) using the following equation: ΔF=FMAX-F0/F0 (see also Fig. 1C). On each plate, we recorded the response of each cell line to 50 µM VUAA1. The average of these ∆F values of each cell line were used to calculate the VUAA1-normalized values for the rest of the plate, by dividing VOC response ∆F values by the average VUAA1 response ∆F value of the corresponding OR cell line. Each VOC-OR combination was measured three times as technical replicates. […] The average of these replicates were used as one ∆F and VUAA1-normalized ∆F in the following analysis.
(§4) In the next rows we tested the reference VOCs (or other VOCs known to activate the corresponding cell lines), in order to test if all cell lines are responsive. The remaining rows were used to test VOCs with unknown effect.
(§5) The recorded FMAX, F0, ∆F, VUAA1-normalized ∆F values, as well as the OR name, the name of the tested sample, and the final concentration for each well were copied into supplementary file Data summary.xlsx, that was used to summarize all the plates recorded. Here, the averages of the measurements were calculated for each receptor-VOC-concentration combination.

Drosophila OR10a = target: T2, Drosophila OR10a (Drosophila melanogaster, UniProt Q9VYZ1); experiment: Calcium ion fluorescence (GCaMP6) assay, OR10a stable HEK293 cell line; format: cell-based; settings: 50 µM, OR10a clone G5, single plate 2019.12.05
T2 construct: expressed in transfected cells
T2 sequence (Q9VYZ1 1-406): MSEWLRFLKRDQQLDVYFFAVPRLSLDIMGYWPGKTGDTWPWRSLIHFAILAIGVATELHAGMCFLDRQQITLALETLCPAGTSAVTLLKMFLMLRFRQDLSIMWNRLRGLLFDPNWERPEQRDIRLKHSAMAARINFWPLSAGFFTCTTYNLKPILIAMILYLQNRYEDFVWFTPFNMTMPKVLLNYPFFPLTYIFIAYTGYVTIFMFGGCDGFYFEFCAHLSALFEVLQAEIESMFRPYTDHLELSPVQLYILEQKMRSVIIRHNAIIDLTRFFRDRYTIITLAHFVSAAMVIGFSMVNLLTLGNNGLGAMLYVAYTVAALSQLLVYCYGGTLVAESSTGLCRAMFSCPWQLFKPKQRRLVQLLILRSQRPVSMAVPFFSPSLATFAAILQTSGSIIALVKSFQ
T2 sequence (Q9VNB5 1-486 partner): T1 sequence (Q9VNB5 1-486 partner)
Experimental: as §1, §2, §3, §4, §5

ORCO = target: T3, ORCO (Drosophila melanogaster, UniProt Q9VNB5); experiment: Origin of Ca2+ test, (GCaMP6-GSG)ORCO cell line; format: cell-based; settings: assay buffer lacking Ca2+, and lacking Ca2+ and containing EGTA
T3 sequence (Q9VNB5 1-486): T1 sequence (Q9VNB5 1-486 partner)
Excerpt: We tested for the origin of the Ca^2+ ions on two cell lines, OR47a and (GCaMP6-GSG)ORCO, with assay buffer lacking Ca^2+ and assay buffer lacking Ca^2+ and containing EGTA.

[1] = system: T4, OR cell lines (OR + ORCO); experiment: Maximum fluorescence change of the OR cell lines, long term stability testing / VUAA1 check; format: cell-based, Drosophila melanogaster
T4 construct: expressed in transfected cells
Experimental: as §1
Twelve thousand to 18,000 cells were plated into each well of a black wall, transparent bottom 384-well microplate (Greiner) 48 h or 72 h before the measurements and were simultaneously treated with 1 μg/mL doxycycline. […] The plate has 24 columns, thus we could record responses in up to eight different cell lines in each plate. On the day of the experiment, the growth medium was replaced with 20 µL assay buffer/well (140 mM NaCl, 5 mM KCl, 2 mM CaCl2, 1 mM MgCl2, 5 mM HEPES-Na, 20 mM glucose, pH 7.3, 340 mOsm). […] Baseline fluorescence (F0) was recorded for 5 s, after which 7 µL VOC buffer (140 mM NaCl, 5 mM KCl, 2 mM CaCl2, 1 mM MgCl2, 5 mM HEPES-Na, 31 mM glucose, 0.1% DMSO, pH 7.3, 340 mOsm) was injected into each well in one row and the fluorescence response was recorded for an additional 30 s, at a rate of one read/sec. VOC solutions (VOC buffer with 4× concentration of the final measured VOC concentration, 9 µL/well was injected) were measured on the same wells in a second round with the same protocol. Each individual concentration of a specific VOC sample was recorded in three wells for the same cell line on the same microplate. […] On each plate, we recorded the response of each cell line to 50 µM VUAA1. […] Each VOC-OR combination was measured three times as technical replicates. […]

OR49b [2] = system: OR49b; set-up: method as in PMID 23329732; settings: OR49b in Xenopus oocytes; read-out: calculated EC50; cited from earlier work
Drosophila OR49b = target: T5, Drosophila OR49b (Drosophila melanogaster, UniProt Q9V6H2); experiment: cell-based
T5 construct: expressed in transfected cells
T5 sequence (Q9V6H2 1-375): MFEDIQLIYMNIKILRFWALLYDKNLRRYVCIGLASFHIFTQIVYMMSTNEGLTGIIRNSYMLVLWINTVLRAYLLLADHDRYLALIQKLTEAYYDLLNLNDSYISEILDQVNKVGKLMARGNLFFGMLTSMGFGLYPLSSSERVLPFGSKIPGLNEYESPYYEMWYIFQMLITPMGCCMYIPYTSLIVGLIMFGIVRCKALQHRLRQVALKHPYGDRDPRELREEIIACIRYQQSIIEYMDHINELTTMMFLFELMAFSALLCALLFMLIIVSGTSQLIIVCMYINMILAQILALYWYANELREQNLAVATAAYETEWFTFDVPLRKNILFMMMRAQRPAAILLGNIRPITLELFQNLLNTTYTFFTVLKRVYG
T5 sequence (Q9VNB5 1-486 partner): T1 sequence (Q9VNB5 1-486 partner)
Experimental: as §1, §2, §3, §4, §5

OR49b [3] = settings: 80 μM; OR49b transiently in HEK293T cells; cited from earlier work
OR13a = system: OR13a; set-up: method as in earlier work; settings: DoOR database value; ref DoOR; cited from earlier work
[4] = OR49b, average of 5 biological replicates
[5] = OR49b, fit of each biological replicate
[6] = OR49b, fit of the averaged curve

## CCc1ccc(NC(=O)CSc2nnc(-c3cccnc3)n2CC)cc1 [VUAA1, reference compound]
Drosophila OR47a
  response in assay buffer lacking Ca2+: Neither of the cell lines responded
Drosophila OR10a
  DF norm, all technical replicates: 1
  DF norm, outlier technical replicates removed: 1
  DF, outlier technical replicates removed: 1.743
Drosophila OR10a; xc+0.1%DMSO
  DF, all technical replicates: 1.743
ORCO
  response in assay buffer lacking Ca2+: Neither of the cell lines responded
[1]; ORCO agonist VUAA1, highest over OR cell lines
  peaks of fluorescence intensity change: ≤ 462%
[1]; all cell lines, including the four non-responding OR lines
  response of the cell lines to VUAA1: responded

## Cc1ccccc1O [2-methylphenol]
OR49b [2]
  EC50: 239 ± 76 µM
Drosophila OR49b; EC50 (fitted parameter), OR49b, fit of each biological replicate
  EC50: 3.35 µM and 16.1 µM and 14.8 µM and 21 µM and 31.6 µM
Drosophila OR49b; EC50, AVERAGE, OR49b, arithmetic average of 5 replicate EC50
  EC50: 17.4 µM
Drosophila OR49b; EC50, FITTED AVERAGE CURVE, OR49b, fit of the averaged curve
  EC50: 24.4 µM
Drosophila OR49b; EC50, OR49b cell line, fitted Hill equation, Hill coefficient constrained to 1, maximal response max 1
  EC50: 13.9 µM
Drosophila OR49b; LOG EC50 (fitted parameter), OR49b, fit of each biological replicate, log of EC50, unit inferred
  EC50: 3.35 µM and 16.1 µM and 14.8 µM and 21 µM and 31.6 µM
Drosophila OR49b; LOG EC50, AVERAGE, OR49b, average of 5 biological replicates
  EC50: 14 µM
Drosophila OR49b; OR49b, VOC concentration 0.075
  response, AVERAGE: 0
  response, biological replicates: 0
Drosophila OR49b; OR49b, VOC concentration 0.15
  response, AVERAGE: 0
  response, biological replicates: 0
Drosophila OR49b; OR49b, VOC concentration 0.3
  response, AVERAGE: 0.0628
  response, biological replicates: 0 (2×) and 0.1244 and 0.09727 and 0.09231
Drosophila OR49b; OR49b, VOC concentration 0.6
  response, AVERAGE: 0.04614
  response, biological replicates: 0 (3×) and 0.1263 and 0.1043
Drosophila OR49b; OR49b, VOC concentration 1.25
  response, AVERAGE: 0.07731
  response, biological replicates: 0 (2×) and 0.1346 and 0.1269 and 0.1251
Drosophila OR49b; OR49b, VOC concentration 2.5
  response, AVERAGE: 0.06463
  response, biological replicates: 0.1405 and 0 (2×) and 0.06363 and 0.119
Drosophila OR49b; OR49b, VOC concentration 5
  response, AVERAGE: 0.1447
  response, biological replicates: 0.2459 and 0.1808 and 0.1356 and 0.1611 and 0
Drosophila OR49b; OR49b, VOC concentration 10
  response, AVERAGE: 0.2704
  response, biological replicates: 0.4119 and 0.3158 and 0.288 and 0.1952 and 0.1409
Drosophila OR49b; OR49b, VOC concentration 20
  response, AVERAGE: 0.5849
  response, biological replicates: 0.5662 and 0.6184 and 0.7088 and 0.601 and 0.43
Drosophila OR49b; OR49b, VOC concentration 40
  response, AVERAGE: 0.6048
  response, biological replicates: 0.5892 and 0.7837 and 0.6143 and 0.432
Drosophila OR49b; OR49b, VOC concentration 60
  response, AVERAGE: 0.7233
  response, biological replicates: 0.8924 and 0.8145 and 0.74 and 0.4464
Drosophila OR49b; OR49b, VOC concentration 80
  response, AVERAGE: 0.613
  response, biological replicates: 0 and 0.9414 and 0.8681 and 0.8023 and 0.453
Drosophila OR49b; OR49b, VOC concentration 100
  response, AVERAGE: 0.818
  response, biological replicates: 0.8641 and 0.8887 and 0.8515 and 0.6679
Drosophila OR49b; [4]
  AVERAGE MAX: 0.8353
  n, AVERAGE: 1
Drosophila OR49b; [5]
  MAX (fitted parameter): 0.4157 and 1 (3×) and 0.7607
  n (fitted parameter): 1
Drosophila OR49b; [6]
  MAX, fitted average curve: 1
  n, FITTED AVERAGE CURVE: 0.855
OR49b [3]
  response: 38.5%

## CC(=O)CCC=C(C)C [6-methyl-5-hepten-2-one]
OR13a
  OR13a DoOR response: 0.44
